{
  "source": "patent US20240269106A1",
  "about": "“SMALL MOLECULE MODULATOR TARGETING A RARE HISTONE MODIFICATION REGULATING ADIPOGENESIS AND PHARMACEUTICAL FORMULATION THEREOF” (COUNCIL OF SCIENTIFIC AND INDUSTRIAL RESEARCH AN INDIAN …, priority 2021, published 2024)",
  "key": {"full length p300 [1]": {"molecular_target": "T1, full length p300 (Homo sapiens, UniProt Q09472)", "T1 construct": "Purified full length p300 protein was used for in vitro acetylation/butyrylation assay", "T1 sequence (Q09472 whole entry, species assumed)": "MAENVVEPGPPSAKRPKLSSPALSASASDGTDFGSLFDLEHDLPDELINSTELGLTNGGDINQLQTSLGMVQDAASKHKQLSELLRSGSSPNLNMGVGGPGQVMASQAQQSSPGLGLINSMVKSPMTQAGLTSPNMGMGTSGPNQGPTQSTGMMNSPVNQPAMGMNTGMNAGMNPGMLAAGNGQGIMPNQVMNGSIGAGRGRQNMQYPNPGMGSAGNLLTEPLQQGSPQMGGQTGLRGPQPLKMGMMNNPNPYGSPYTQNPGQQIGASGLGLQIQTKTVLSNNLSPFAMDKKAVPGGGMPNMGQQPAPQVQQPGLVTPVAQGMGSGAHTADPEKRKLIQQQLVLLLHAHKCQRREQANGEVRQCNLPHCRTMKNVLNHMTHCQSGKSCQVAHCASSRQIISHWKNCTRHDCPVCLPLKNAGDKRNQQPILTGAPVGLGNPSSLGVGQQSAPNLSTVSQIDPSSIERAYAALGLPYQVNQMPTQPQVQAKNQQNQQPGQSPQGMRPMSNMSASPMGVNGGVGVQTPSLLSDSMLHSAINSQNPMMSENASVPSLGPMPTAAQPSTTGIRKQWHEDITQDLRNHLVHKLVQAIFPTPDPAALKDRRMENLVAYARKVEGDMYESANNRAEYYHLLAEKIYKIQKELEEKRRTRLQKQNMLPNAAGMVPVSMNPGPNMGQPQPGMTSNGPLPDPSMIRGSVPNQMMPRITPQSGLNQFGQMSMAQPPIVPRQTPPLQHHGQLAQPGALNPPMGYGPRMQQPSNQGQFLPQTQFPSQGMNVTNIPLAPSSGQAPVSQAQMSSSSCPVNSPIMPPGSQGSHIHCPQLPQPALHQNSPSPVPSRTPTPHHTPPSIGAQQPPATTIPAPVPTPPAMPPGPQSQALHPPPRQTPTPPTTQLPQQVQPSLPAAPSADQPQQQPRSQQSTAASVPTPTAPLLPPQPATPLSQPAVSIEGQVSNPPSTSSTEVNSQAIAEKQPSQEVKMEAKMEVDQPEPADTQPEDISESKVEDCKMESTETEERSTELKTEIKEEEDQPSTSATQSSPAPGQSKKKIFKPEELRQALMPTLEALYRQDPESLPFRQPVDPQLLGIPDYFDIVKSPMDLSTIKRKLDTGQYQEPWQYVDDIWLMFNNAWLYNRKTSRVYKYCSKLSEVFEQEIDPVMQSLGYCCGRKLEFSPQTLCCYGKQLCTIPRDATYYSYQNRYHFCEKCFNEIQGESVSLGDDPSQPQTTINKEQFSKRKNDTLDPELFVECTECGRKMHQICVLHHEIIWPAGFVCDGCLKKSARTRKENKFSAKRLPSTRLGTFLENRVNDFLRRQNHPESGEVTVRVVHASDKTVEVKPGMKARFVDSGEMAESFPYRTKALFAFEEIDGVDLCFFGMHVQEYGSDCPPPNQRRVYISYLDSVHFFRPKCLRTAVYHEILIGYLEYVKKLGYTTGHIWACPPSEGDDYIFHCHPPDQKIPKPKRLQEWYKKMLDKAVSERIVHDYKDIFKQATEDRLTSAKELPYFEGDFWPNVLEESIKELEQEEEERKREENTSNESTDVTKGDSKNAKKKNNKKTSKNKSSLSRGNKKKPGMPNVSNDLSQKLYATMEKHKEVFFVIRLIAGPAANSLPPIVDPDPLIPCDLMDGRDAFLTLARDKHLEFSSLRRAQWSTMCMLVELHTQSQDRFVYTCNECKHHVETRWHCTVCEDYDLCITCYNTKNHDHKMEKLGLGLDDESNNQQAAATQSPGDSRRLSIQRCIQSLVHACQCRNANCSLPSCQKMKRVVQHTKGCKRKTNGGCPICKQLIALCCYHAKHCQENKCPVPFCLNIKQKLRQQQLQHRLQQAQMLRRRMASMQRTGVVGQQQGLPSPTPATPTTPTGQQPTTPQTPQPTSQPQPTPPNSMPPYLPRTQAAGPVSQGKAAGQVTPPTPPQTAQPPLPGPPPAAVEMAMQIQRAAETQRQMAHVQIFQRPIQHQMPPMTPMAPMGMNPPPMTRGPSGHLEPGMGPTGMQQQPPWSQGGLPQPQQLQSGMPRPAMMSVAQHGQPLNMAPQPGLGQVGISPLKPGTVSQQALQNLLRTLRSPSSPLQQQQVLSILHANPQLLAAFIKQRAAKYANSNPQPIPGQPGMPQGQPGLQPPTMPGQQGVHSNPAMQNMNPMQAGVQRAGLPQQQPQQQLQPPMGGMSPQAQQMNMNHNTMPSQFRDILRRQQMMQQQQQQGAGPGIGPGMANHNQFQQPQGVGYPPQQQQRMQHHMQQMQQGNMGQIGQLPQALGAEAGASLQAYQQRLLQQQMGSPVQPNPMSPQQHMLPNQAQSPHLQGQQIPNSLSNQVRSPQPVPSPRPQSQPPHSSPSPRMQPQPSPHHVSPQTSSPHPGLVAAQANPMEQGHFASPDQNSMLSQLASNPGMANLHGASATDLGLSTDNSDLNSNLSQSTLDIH", "test": "In vitro p300 acetylation assay (immunoblot)", "assay_type": "biochemical", "conditions": "same range of concentration (10, 15, 20 and 25 μM)", "method": "(§1) Purified full length p300 protein was used for in vitro acetylation/butyrylation assay in presence/absence of different compounds. Acylation reactions were performed in reaction buffer (25 mM Tris-HCl PH 7.5, 100 mM NaCl, 0.1 mM EDTA, 1 mM DTT, 10% Glycerol, 1×PIC) with 100 ng/ml TSA, and 50 μM Butyryl-CoA/Acetyl COA. Xenopus histone H3 (500 ng) was used as the substrate and p300 (10,000 cpm activity) was used as the enzyme. Reactions were incubated in presence or absence of small molecule modulators (including compound of Formula I) for 10 minutes at 30° C., followed by initiation of the acetylation/butyrylation reaction by the addition of acetyl/butyryl CoA. After a further 10 minutes, reactions were stopped by addition of Laemmli buffer and samples were used for immunoblotting.\n(§2) Immunoblotting with antibodies against acetylated H3K18, acetylated H3K9 and pan-butyryl lysine was performed to check for the relative inhibition of acetyl transferase and butyryl transferase activities of full length p300 by garcinol, isogarcinol and its different derivatives including compound of Formula I at different concentrations. FIG. 2i depicts the effect of garcinol, isogarcinol and two of its derivatives LTK-13 and LTK-14 on p300 catalysed acetyltransferase activity. […] FIG. 2ii depicts the effect of LTK-14 on acetylation and butyrylation catalysed by p300. Lane 1, enzyme alone; Lane 2-4, enzyme+LTK-14 at concentrations 500 nM, 2 μM and 10 μM, respectively. LTK-14 could inhibit acetylation at 10 μM concentration while butyrylation was inhibited at 2 μM concentration. FIG. 2iii depicts the effect of compound x on acetylation and butyrylation catalysed by p300. Lane 1, enzyme alone; Lane 2, enzyme+DMSO; Lane 3-6, enzyme+compound x at concentrations 10, 15, 20 and 25 μM, respectively."}, "full length p300 [2]": {"molecular_target": "T1, full length p300", "test": "In vitro p300 butyrylation assay (immunoblot)", "assay_type": "biochemical", "conditions": "25 μM", "method": "as §1, §2"}, "[3]": {"test": "Detection of compound in mice liver by Q-TOF LC/MS", "assay_type": "in vivo", "conditions": "LC-ESI-MS of liver metabolites", "method": "The liver samples of mice treated with compound I were homogenized in a solution consisting of 50% methanol and 50% water and then snap frozen in liquid nitrogen followed by lyophilization. Profiling of intracellular metabolites was performed on an agilent 1290 Infinity LC system coupled to Agilent 6545 Accurate Mass Quadrupole Time of Flight (QTOF) with Agilent Jet Stream Thermal Gradient Technology. The UPLC system was assembled with a Diode array detector (DAD) and autosampler. The Chromatographic separation was achieved on Agilent ZORBAX SB-C18 column (2.1×100 mm, 1.8 μm) as stationary phase. […]\nThe ESI spectra of pure solution of compound of Formula I was taken as reference (FIG. 14A). When LC-ESI-MS analysis of metabolites of compound treated mice, liver was performed, the corresponding protonated molecular ion species was detected in the ESI spectra (FIG. 14B)."}},
  "data": [
    {"molecule": "COc1ccc(C(=O)C2=C3OC(C)(C)[C@@H](CC=C(C)C)C[C@@]34C[C@@H](CC=C(C)C)C(C)(C)[C@@](CC=C(C)C)(C2=O)C4=O)cc1OC", "note": "[Compound X]", "values": [
      {"measurement": "effect on acetylation catalysed by p300", "setting": "full length p300 [1]", "result": "without affecting acetylation"},
      {"measurement": "effect on butyrylation catalysed by p300", "setting": "full length p300 [2]", "result": "significant inhibitory effect"},
      {"measurement": "detection in mice liver (bioavailability)", "setting": "[3]", "result": "detected in its intact form"}
    ]}
  ]
}
